“Also recorded” adds a separate entry of the source.
How the values were obtained:
Type in all cases: cell-based, Human
ARPE-19 cells [1] = experiment: α-SMA expression by quantitative immunocytochemistry after HG+Cyt insult; settings: for α-SMA to RPE65 expression ratio / α-SMA expression (mean fluorescence intensity, compared to untreated levels): ARPE-19, HG+Cyt insult plus tonabersat 100 μM; for α-SMA to RPE65 expression ratio: α-SMA MFI/RPE65 MFI
Protocol: (§1) Human adult retinal pigment epithelial cells (ARPE-19; American Type Culture Collection, USA) were cultured in Dulbecco's modified Eagle medium F-12 (DMEM-F12; Thermofisher Scientific Inc., USA) supplemented with 10% foetal bovine serum ([…]: Invitrogen, USA) and a 1× antibiotics and antimycotics mixture (AA, 100× stock) at 37° C. in a humidified 5% CO2 incubator. Cells were grown in T75 flasks, and the medium was changed twice per week until confluent.
(§2) At passages 15-18, cells were plated at 2.5×10^5 cells/mL in 8-well chamber slides for immunohistochemical studies, 6-well plates with inserts for fluorescein isothiocyanate (FITC)-dextran dye leak and transepithelial electrical resistance (TEER) measurements, and 24-well plates for cell migration studies. Once confluent, cells were treated as three separate groups: untreated, insult of HG+Cyt, or HG+Cyt insult plus tonabersat treatment (HG+Cyt+Ton). The insult of HG+Cyt was used to induce DR-like conditions as has been previously described (Kuo et al., 2020; Mugisho et al., 2018a, 2018b), and consisted of a combination of 32.5 mM HG and the pro-inflammatory cytokines; tumour necrosis factor alpha (TNF-α; 10 ng/mL; Peprotech, USA) and interleukin-1 beta (IL-1β; 10 ng/mL; Peprotech, USA).
(§3) Tonabersat (MedChemExpress, NJ, USA) was administered at a concentration of 100 μM to cells at the same time as the HG+Cyt insult (HG+Cyt+Ton). To achieve this tonabersat was dissolved in 100% DMSO at a concentration of 100 mM and then 1 μl of the stock solution was added to 999 μl of culture medium containing HG+Cyt. Cells were incubated under treatment conditions for 72 h unless otherwise stated. Brightfield images were taken using a light microscope at 24, 48, and 72 h post-treatment. All experiments were repeated thrice.
Cells were fixed with 4% paraformaldehyde for 10 min and permeabilized with 0.1% Triton X-100 in phosphate-buffered saline (PBS) for 10 min. Cells were blocked in normal goat or horse serum for 1 h, and then incubated overnight at 4° C. with either mouse anti-RPE65 (1:1000; Abcam, UK) and goat anti-α-SMA (1:200; Abcam, UK), or rabbit anti-ZO-1 (1:1000; Invitrogen, USA). Two 10 min washes followed in PBS, after which cells were incubated at room temperature for 2 h with their respective secondary antibodies; donkey anti-rabbit Alexa-488 (1:500; Abcam, UK), donkey anti-mouse Alexa-488 (1:500; Abcam, UK) or donkey anti-goat Cy3 (1:500; Invitrogen, USA). Cells were washed in PBS twice for 10 min. Cell nuclei were stained with DAPI (1:1000; Sigma-Aldrich, USA), and slides were mounted using Citifluor™ anti-fade reagent and sealed with nail varnish.
(§4) Fluorescence images were taken on an Olympus FV1000 confocal laser scanning microscope (Olympus, Japan), and processed using Olympus FV10-ASW viewer and ImageJ software (Version 1.52a, National Institute of Health, USA). Five images were taken from a single chamber per condition and repeated in three separate experiments. RPE65 and α-SMA expression was quantified by measuring the mean fluorescence intensity (MFI). Data is presented relative to the respective untreated group. The ratio of α-SMA to RPE65 expression was additionally calculated by (α-SMA MFI/RPE65 MFI). ZO-1 was qualitatively assessed for changes in localisation.

ARPE-19 cells [2] = experiment: RPE65 expression by quantitative immunocytochemistry after HG+Cyt insult
Protocol: as §1
(§5) At passages 15-18, cells were plated at 2.5×10^5 cells/mL in 8-well chamber slides for immunohistochemical studies, 6-well plates with inserts for fluorescein isothiocyanate (FITC)-dextran dye leak and transepithelial electrical resistance (TEER) measurements, and 24-well plates for cell migration studies. Once confluent, cells were treated as three separate groups: untreated, insult of HG+Cyt, or HG+Cyt insult plus tonabersat treatment (HG+Cyt+Ton). […]
as §4, with “Five images were taken from a single chamber per condition and repeated in three separate experiments.” left out, “Data is presented relative to the respective untreated group.” left out

ARPE-19 cells [3] = experiment: TGF-β1 and TGF-β2 release after HG+Cyt insult; settings: HG+Cyt insult plus tonabersat
ARPE-19 cells [4] = experiment: ZO-1 tight junction localisation, immunocytochemistry; settings: ARPE-19, HG+Cyt insult plus tonabersat 100 μM, qualitative
Protocol: as §1, §5
as §4, with “Five images were taken from a single chamber per condition and repeated in three separate experiments.” left out, “Data is presented relative to the respective untreated group.” left out

ARPE-19 cells [5] = experiment: Transepithelial electrical resistance (TEER) of cell monolayer; settings: ARPE-19 monolayer, HG+Cyt plus tonabersat 100 μM
Protocol: as §1, §2, §3
To determine the effect of conditions on the TEER of the cell monolayer, cells were again seeded into the inserts of 6-well Transwell® plates (Corning Incorporated, USA), with additional medium in the base. […] TEER values were quantified relative to the 0 h values for each respective group. […]

ARPE-19 cells [6] = experiment: Cell migration (scrape wound) assay after HG+Cyt insult; settings: ARPE-19, HG+Cyt plus tonabersat 100 μM
Protocol: as §1, §2
Tonabersat (MedChemExpress, NJ, USA) was administered at a concentration of 100 μM to cells at the same time as the HG+Cyt insult (HG+Cyt+Ton). […]
To determine cell migration rates following 72 h treatment, a scrape wound was created in the cell monolayer by drawing a 1000 μL pipette tip vertically over the cells by hand, and the width of the wound measured over time. […] The width of the scrape was measured with the line tool and “measure” feature in ImageJ at eight regular intervals (guided using a grid overlay) within each image. […] The scrape wound width was quantified relative to the post-scrape width at time 0 h and converted to a percentage scrape closure for each condition. […]

ARPE-19 cells [7] = experiment: Cx43 cell membrane localization, immunolabelling; settings: ARPE-19, HG+Cyt insult plus tonabersat, qualitative

## CC(=O)c1ccc2c(c1)[C@H](NC(=O)c1ccc(F)c(Cl)c1)[C@H](O)C(C)(C)O2 [tonabersat, N-[(3S,4S)-6-acetyl-3-hydroxy-2,2-dimethyl-3,4-dihydrochromen-4-yl]-3-chloro-4-fluorobenzamide]
ARPE-19 cells [1]; 24 h
  α-SMA to RPE65 expression ratio: 1.1
ARPE-19 cells [1]; 72 h
  α-SMA expression (mean fluorescence intensity, compared to untreated levels): 75.5±8.4%
  α-SMA to RPE65 expression ratio: 0.8
ARPE-19 cells [1]; 72 h, listed as HG+Cyt+Ton
  α-SMA expression (mean fluorescence intensity, compared to untreated levels): significantly reduced
ARPE-19 cells [1]; ARPE-19, addition of tonabersat, FIG. 2 qualitative
  α-SMA expression increase and striation following HG+Cyt insult (immunolabelling images): changes were prevented
ARPE-19 cells [2]; ARPE-19, HG+Cyt insult plus tonabersat 100 μM, 72 h, comparison with HG+Cyt and untreated groups, listed as HG+Cyt+Ton
  RPE65 expression (mean fluorescence intensity relative to untreated group): not being significantly different to either group; also recorded: no statistically significant difference
ARPE-19 cells [2]; ARPE-19, co-application of tonabersat, FIG. 2 qualitative
  RPE65 expression decrease following HG+Cyt insult (immunolabelling images): prevented
ARPE-19 cells [3]; 24 h
  HG+Cyt induced TGF-β2 release: prevented HG+Cyt induced TGF-β2 release back to untreated levels
ARPE-19 cells [3]; 72 h
  TGF-β1 and 2 levels: no significant differences between all groups
ARPE-19 cells [4]
  ZO-1 cell membrane localization: maintained ZO-1 localization at the cell membrane; also recorded: prevented loss of ZO-1 cell membrane localization
ARPE-19 cells [5]; 24 h
  TEER relative to 0 h value: 99.5±1.2%
ARPE-19 cells [5]; 48 h
  TEER relative to 0 h value: 114.9±3.2%
ARPE-19 cells [5]; 72 h
  TEER relative to 0 h value: 97.7±1.1%
ARPE-19 cells [6]; 4 h post-scrape vs 0 h scrape width
  scrape wound percentage closure: no significant difference in percentage closure
ARPE-19 cells [6]; 24 h post-scrape relative to 0 h width
  scrape wound percentage closure: 33.8±9.6%
ARPE-19 cells [6]; 24 h post-scrape relative to 0 h width, listed as HG+Cyt+Ton
  scrape wound percentage closure: reduction in scrape wound closure
ARPE-19 cells [7]
  Cx43 cell membrane localization: maintained Cx43 localization
